The text below walks through data of patent US11046699B2, “Pyrazolo-pyrimidin-amino-cycloalkyl compounds and their therapeutic uses” (RAPT THERAPEUTICS, INC., priority 2018, dated 2021).

SMILES strings stand for the structures. Read-outs that look alike come from different tables or passages of the source. Some results are limits rather than exact numbers.

This test has as its target GCN2 (Homo sapiens, UniProt Q9P2K8). The test is described as follows: GCN2 enzymatic endpoint assay: phosphorylation of GFP-eIF2α measured by TR-FRET (Lanthascreen). It is filed as biochemical. In a few lines:
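Phosphorylated eIF2α read by Lanthascreen TR-FRET (acceptor 520 nm over donor 495 nm) after EDTA stop. The reaction ran 90 min at room temperature on 80 nM GFP-eIF2α with 2 μM ATP.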

[1] abbreviates: tested as described in Example 77, compound and/or hydrochloride, dihydrochloride or trifluoroacetic acid salt, read-out: IC 50 Activity.
[2] abbreviates: GCN2 biochemical IC50, 4 nM GCN2, 2 μM ATP, 80 nM GFP-eIF2α, 90 min RT, read-out: GCN2 activity.

Chain of GCN2 (Q9P2K8 whole entry): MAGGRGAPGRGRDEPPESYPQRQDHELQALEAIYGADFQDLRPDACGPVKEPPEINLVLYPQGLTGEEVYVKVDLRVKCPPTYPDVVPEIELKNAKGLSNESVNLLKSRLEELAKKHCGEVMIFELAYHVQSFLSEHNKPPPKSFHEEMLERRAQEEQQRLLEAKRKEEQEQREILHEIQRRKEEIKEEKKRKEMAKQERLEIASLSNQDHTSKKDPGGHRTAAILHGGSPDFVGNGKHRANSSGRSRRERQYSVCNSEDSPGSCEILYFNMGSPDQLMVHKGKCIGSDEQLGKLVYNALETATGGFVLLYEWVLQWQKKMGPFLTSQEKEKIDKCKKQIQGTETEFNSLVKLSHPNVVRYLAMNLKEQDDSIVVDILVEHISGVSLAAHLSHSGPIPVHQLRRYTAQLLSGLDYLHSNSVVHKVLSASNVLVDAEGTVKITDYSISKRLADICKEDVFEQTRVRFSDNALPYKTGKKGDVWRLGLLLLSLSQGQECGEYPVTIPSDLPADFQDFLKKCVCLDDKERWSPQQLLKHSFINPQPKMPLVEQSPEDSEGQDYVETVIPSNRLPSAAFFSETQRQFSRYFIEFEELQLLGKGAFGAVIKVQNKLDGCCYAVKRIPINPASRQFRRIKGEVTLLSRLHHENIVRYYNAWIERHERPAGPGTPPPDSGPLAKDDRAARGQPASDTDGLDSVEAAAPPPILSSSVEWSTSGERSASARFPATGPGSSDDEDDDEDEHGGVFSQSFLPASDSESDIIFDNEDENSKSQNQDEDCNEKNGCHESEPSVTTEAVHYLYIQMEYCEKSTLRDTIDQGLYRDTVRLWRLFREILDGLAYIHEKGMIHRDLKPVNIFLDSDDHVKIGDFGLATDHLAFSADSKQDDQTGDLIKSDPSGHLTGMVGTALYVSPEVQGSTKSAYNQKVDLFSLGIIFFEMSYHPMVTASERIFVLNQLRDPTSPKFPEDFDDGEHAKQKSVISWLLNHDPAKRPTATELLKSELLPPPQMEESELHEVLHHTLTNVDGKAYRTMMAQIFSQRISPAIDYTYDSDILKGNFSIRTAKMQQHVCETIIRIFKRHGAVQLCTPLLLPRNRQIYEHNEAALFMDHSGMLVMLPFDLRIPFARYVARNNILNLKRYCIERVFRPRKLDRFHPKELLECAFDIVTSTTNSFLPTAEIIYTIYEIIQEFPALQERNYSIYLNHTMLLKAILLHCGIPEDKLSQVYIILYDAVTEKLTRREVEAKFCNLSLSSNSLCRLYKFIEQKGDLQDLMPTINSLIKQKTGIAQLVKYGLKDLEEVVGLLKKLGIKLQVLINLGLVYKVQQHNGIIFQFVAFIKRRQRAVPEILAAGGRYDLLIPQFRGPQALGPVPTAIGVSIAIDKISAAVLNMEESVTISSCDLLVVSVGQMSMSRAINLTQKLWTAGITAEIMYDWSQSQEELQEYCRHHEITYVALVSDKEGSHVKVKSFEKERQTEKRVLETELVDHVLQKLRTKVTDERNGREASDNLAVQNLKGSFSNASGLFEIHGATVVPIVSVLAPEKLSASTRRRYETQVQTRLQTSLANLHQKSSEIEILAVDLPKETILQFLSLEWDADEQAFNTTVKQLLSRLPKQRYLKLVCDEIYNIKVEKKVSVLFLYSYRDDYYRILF

Regarding `N#Cc1cc(-n2nc(Br)c3cnc(N[C@@H]4CC[C@@H](C(=O)NC5CCN(CC(F)(F)F)C5)C4)nc32)cc2cccnc12` (mixture of isomers), the IC50 under setting [1] fell in the range of 25 to 200 nM. On the same count and under the same terms, for `CNC(=O)[C@]1(C)CC[C@@H](Nc2ncc3c(Br)nn(-c4cc(Cl)cc(C(=O)N(C)C)c4)c3n2)C1` [3-[3-bromo-6-[[(1R,3R)-3-methyl-3-(methylcarbamoyl)cyclopentyl]amino]pyrazolo[3,4-d]pyrimidin-1-yl]-5-chloro-N,N-dimethyl-benzamide] the value was 25 to 200 nM; for `CNC(=O)[C@]1(C)CC[C@@H](Nc2ncc3c(Br)nn(-c4ccc(-c5nnc(C(C)CO)o5)cc4)c3n2)C1` (stereo partly drawn) [(1R,3R)-3-[[3-bromo-1-[4-[5-(2-hydroxy-1-methyl-ethyl)-1,3,4-oxadiazol-2-yl]phenyl]pyrazolo[3,4-d]pyrimidin-6-yl]amino]-N,1-dimethyl-cyclopentane-carboxamide], below 25 nM; for `CCS(=O)(=O)N1Cc2cc(-n3nc(Br)c4cnc(N[C@@H]5CC[C@@](C)(C(=O)NC)C5)nc43)cnc2C1` [(1R,3R)-3-[[3-bromo-1-(6-ethylsulfonyl-5,7-dihydropyrrolo[3,4-b]pyridin-3-yl)pyrazolo[3,4-d]pyrimidin-6-yl]amino]-N,1-dimethyl-cyclopentanecarboxamide], 25 to 200 nM.

Turning to `CNC(=O)C1(C(C)C#N)CC[C@@H](Nc2ncc3c(Br)nn(-c4ccc(-c5nnc(C)s5)c(CCC#N)c4)c3n2)C1` (stereo partly shown), under setting [1], the IC50 is 25 to 200 nM. The same measure, in the same setting: for `CC(=O)N1CCC(Nc2ncc3c(Br)nn(-c4cc(F)c5ncccc5c4)c3n2)CC1` [1-[4-[[3-bromo-1-(8-fluoro-6-quinolyl)pyrazolo[3,4-d]pyrimidin-6-yl]amino]-1-piperidyl]ethanone] the value was 25 to 200 nM. The same measure, in the same setting: for `COC1CC(Nc2ncc3c(Br)nn(-c4cc(F)c5ncccc5c4)c3n2)C1` (stereo not shown) [3-bromo-1-(8-fluoro-6-quinolyl)-N-(3-methoxycyclobutyl)pyrazolo[3,4-d]pyrimidin-6-amine] the value was 25 to 200 nM. Take `Brc1nn(-c2ccc3ncccc3c2)c2nc(N[C@@H]3CC[C@@H](c4ncc[nH]4)C3)ncc12` [Example 25, N-((1R,3R)-3-(1H-imidazol-2-yl)cyclopentyl)-3-bromo-1-(quinolin-6-yl)-1H-pyrazolo[3,4-d]pyrimidin-6-amine]: the IC50 under setting [2] lay in the range of 25 to 200 nM.

As for `CNC(=O)[C@]1(C)CC[C@@H](Nc2ncc3c(Br)nn(-c4ccc(-c5nnc(C)s5)c(CC(C#N)CO)c4)c3n2)C1` (stereo partly drawn) [(1R,3R)-3-[[3-bromo-1-[3-(2-cyano-3-hydroxy-propyl)-4-(5-methyl-1,3,4-thiadiazol-2-yl)phenyl]pyrazolo[3,4-d]pyrimidin-6-yl]amino]-N,1-dimethyl-cyclopentanecarboxamide], the IC50 under setting [1] is below 25 nM.

`CC(C)(CN1CCCC1)NC(=O)[C@@H]1CC[C@@H](Nc2ncc3c(Br)nn(-c4ccc5ncccc5c4)c3n2)C1`: the IC50 under setting [1] lay within 25 to 200 nM. Regarding `CNCCc1cc(-n2nc(Br)c3cnc(N[C@@H]4CC[C@@](C)(C(=O)NC)C4)nc32)ccc1-c1ncco1` [(1R,3R)-3-[[3-bromo-1-[3-[2-(methylamino)ethyl]-4-oxazol-2-yl-phenyl]pyrazolo[3,4-d]pyrimidin-6-yl]amino]-N,1-dimethyl-cyclopentanecarboxamide], the IC50 under setting [1] lay within 25 to 200 nM. On the same count and under the same terms, for `CNC(=O)[C@]1(C)CC[C@@H](Nc2ncc3c(Br)nn(-c4ccc5c(=O)n(C)cnc5c4)c3n2)C1` the value was 25 to 200 nM; for `CNC(=O)[C@]1(C)CC[C@@H](Nc2ncc3c(Br)nn(-c4cccc(NC(=O)c5cncnc5)c4)c3n2)C1` [N-[3-[3-bromo-6-[[(1R,3R)-3-methyl-3-(methylcarbamoyl)cyclopentyl]amino]pyrazolo[3,4-d]pyrimidin-1-yl]phenyl] pyrimidine-5-carboxamide], 25 to 200 nM; for `CNC(=O)[C@]1(C)CC[C@@H](Nc2ncc3c(Br)nn(-c4cc([C@H](C)CO)c5ncccc5c4)c3n2)C1` [(1R,3R)-3-[[3-bromo-1-[8-[(1S)-2-hydroxy-1-methyl-ethyl]-6-quinolyl]pyrazolo[3,4-d]pyrimidin-6-yl]amino]-N,1-dimethyl-cyclopentanecarboxamide], below 25 nM. With `OC1CC(Nc2ncc3c(Br)nn(-c4cc(F)c5ncccc5c4)c3n2)C1` (stereo not shown) [3-[[3-bromo-1-(8-fluoro-6-quinolyl)pyrazolo[3,4-d]pyrimidin-6-yl]amino] cyclobutanol], the IC50 under setting [1] lay in the range of 25 to 200 nM. The same measure, in the same setting: as for `C[C@]1(C(=O)N[C@@H]2CCOC2)C[C@H](Nc2ncc3c(Br)nn(-c4ccc5ncccc5c4)c3n2)C1`, the figure is 25 to 200 nM. Same read-out and setting: for `CCc1nnc(-c2ccc(-n3nc(Br)c4cnc(N[C@@H]5CC[C@@](C)(C(=O)NC)C5)nc43)cc2)s1` [(1R,3R)-3-[[3-bromo-1-[4-(5-ethyl-1,3,4-thiadiazol-2-yl)phenyl]pyrazolo[3,4-d]pyrimidin-6-yl]amino]-N,1-dimethyl-cyclopentanecarboxamide] the value was 25 to 200 nM; for `CNC(=O)[C@]1(CC(F)F)CC[C@@H](Nc2ncc3c(Br)nn(-c4cc(F)c5ncccc5c4)c3n2)C1` [(1R,3R)-3-[[3-bromo-1-(8-fluoro-6-quinolyl)pyrazolo[3,4-d]pyrimidin-6-yl]amino]-1-(2,2-difluoroethyl)-N-methyl-cyclopentane-carboxamide], below 25 nM. Same read-out and setting: as for `CNC(=O)[C@]1(C)CC[C@@H](Nc2ncc3c(Br)nn(-c4ccc(-n5cccn5)cc4)c3n2)C1` [(1R,3R)-3-[[3-bromo-1-(4-pyrazol-1-ylphenyl)pyrazolo[3,4-d]pyrimidin-6-yl]amino]-N,1-dimethyl-cyclopentane-carboxamide], the figure is 25 to 200 nM; as for `C[C@H](N)c1cc(Cl)cc(-n2nc(Br)c3cnc(N[C@@H]4CC[C@@](C)(C(=O)N5CCP(C)(=O)CC5)C4)nc32)c1`, 25 to 200 nM. In the case of `CN(C)S(=O)(=O)[C@@H]1CC[C@@H](Nc2ncc3c(Br)nn(-c4ccc5ncccc5c4)c3n2)C1` [(1R,3R)-3-((3-bromo-1-(quinolin-6-yl)-1H-pyrazolo[3,4-d]pyrimidin-6-yl)amino)-N,N-dimethylcyclopentane-1-sulfonamide], the IC50 under setting [1] was 25 to 200 nM.

Consider `CNC(=O)CCC1(C#N)CC[C@@H](Nc2ncc3c(Br)nn(-c4ccc(-c5nnc(C)s5)cc4)c3n2)C1` (stereo partly shown), for which the IC50 under setting [1] is below 25 nM. The same measure, in the same setting: for `O=C1CC(CNC(=O)[C@@H]2CC[C@@H](Nc3ncc4c(Br)nn(-c5ccc6ncccc6c5)c4n3)C2)CCN1` (stereo partly drawn) [(1R,3R)-3-((3-bromo-1-(quinolin-6-yl)-1H-pyrazolo[3,4-d]pyrimidin-6-yl)amino)-N-((2-oxopiperidin-4-yl)methyl)cyclopentane-1-carboxamide] the value was 25 to 200 nM; for `Cc1nnc(-c2ccc(-n3nc(Br)c4cnc(N[C@@H]5CCC(S(C)(=O)=O)C5)nc43)cc2)s1` (stereo partly drawn) [3-bromo-N-[(1R)-3-methylsulfonylcyclo-pentyl]-1-[4-(5-methyl-1,3,4-thiadiazol-2-yl)phenyl]pyrazolo[3,4-d]pyrimidin-6-amine], 25 to 200 nM. On the same count and under the same terms, as for `CNC(=O)[C@]1(C)CC[C@@H](Nc2ncc3c(Br)nn(-c4cc(CO)cc(S(C)(=O)=O)c4)c3n2)C1` [(1R,3R)-3-[[3-bromo-1-[3-(hydroxymethyl)-5-methylsulfonyl-phenyl]pyrazolo[3,4-d]pyrimidin-6-yl]amino]-N,1-dimethyl-cyclo-pentanecarboxamide], the figure is 25 to 200 nM; as for `COCCNC(=O)[C@@]1(C)CC[C@@H](Nc2ncc3c(Br)nn(-c4ccc5ncccc5c4)c3n2)C1` [(1S,3R)-3-((3-bromo-1-(quinolin-6-yl)-1H-pyrazolo[3,4-d]pyrimidin-6-yl)amino)-N-(2-methoxyethyl)-1-methylcyclopentane-1-carboxamide], 500 to 1000 nM. In the case of `COCCNC(=O)[C@@H]1CC[C@@H](Nc2ncc3c(Br)nn(-c4ccc5cnccc5c4)c3n2)C1` [Example 6, (1R,3R)-3-((3-bromo-1-(isoquinolin-6-yl)-1H-pyrazolo[3,4-d]pyrimidin-6-yl)amino)-N-(2-methoxyethyl)cyclopentane-1-carboxamide], the IC50 under setting [2] is 25 to 200 nM. As to `O=C(NC1CCCN(CCF)C1)[C@@H]1CC[C@@H](Nc2ncc3c(Br)nn(-c4cc(F)c5ncccc5c4)c3n2)C1` (mixture of isomers), the IC50 under setting [1] fell in the range of 25 to 200 nM. Same read-out and setting: as for `CNC(=O)[C@]1(C)CC[C@@H](Nc2ncc3c(Br)nn(-c4ccc(C#N)c(CO)c4)c3n2)C1` [(1R,3R)-3-[[3-bromo-1-[4-cyano-3-(hydroxymethyl)phenyl]pyrazolo[3,4-d]pyrimidin-6-yl]amino]-N,1-dimethyl-cyclopentanecarboxamide], the figure is 25 to 200 nM.

For the molecule `CN1CCN(C(=O)[C@@H]2CC[C@@H](Nc3ncc4c(Br)nn(-c5ccc(N6CCOCC6)c(C#N)c5)c4n3)C2)CC1=O` [Example 9, 5-(3-bromo-6-(((1R,3R)-3-(4-methyl-3-oxopiperazine-1-carbonyl)cyclopentyl)amino)-1H-pyrazolo[3,4-d]pyrimidin-1-yl)-2-morpholinobenzonitrile], the IC50 under setting [2] is 200 to 500 nM. Same read-out and setting: as for `COCCNC(=O)[C@H]1C[C@H](Nc2ncc3c(Br)nn(-c4ccc5ncccc5c4)c3n2)C1` [Example 2, (1r,3r)-3-((3-bromo-1-(quinolin-6-yl)-1H-pyrazolo[3,4-d]pyrimidin-6-yl)amino)-N-(2-methoxyethyl)cyclobutane-1-carboxamide], the figure is 25 to 200 nM. As to `C[C@@]1(CO)CC[C@@H](Nc2ncc3c(Br)nn(-c4cc(CCN)c5ncccc5c4)c3n2)C1`, the IC50 under setting [1] is 25 to 200 nM.

Regarding `CNC(=O)[C@]1(C)CC[C@@H](Nc2ncc3c(Br)nn(-c4ccc5c(c4)CN(S(C)(=O)=O)C5)c3n2)C1` [Example 61, (1R,3R)-3-((3-bromo-1-(2-(methylsulfonyl)isoindolin-5-yl)-1H-pyrazolo[3,4-d]pyrimidin-6-yl)amino)-N,1-dimethylcyclopentane-1-carboxamide], the IC50 under setting [2] was 25 to 200 nM.

On to `CNC(=O)[C@]1(C)CC[C@@H](Nc2ncc3c(Br)nn(-c4cc([C@@H](C)CO)c5ncccc5c4)c3n2)C1` [(1R,3R)-3-[[3-bromo-1-[8-[(1R)-2-hydroxy-1-methyl-ethyl]-6-quinolyl]pyrazolo[3,4-d]pyrimidin-6-yl]amino]-N,1-dimethyl-cyclo-pentanecarboxamide], for which the IC50 under setting [1] is below 25 nM.
